Laboratory results as given in patent US8349899B1 (Arrowhead Center, Inc., priority 2008, dated 2013).
Where two headings read alike, the source gives them in different places.

What was measured:
[1] = system: HeLa cervical adenocarcinoma cells; assay: bipolar spindle formation in HeLa cells; assay type: cell-based, human
Experimental: Biochemical- and cell-based assays were used to evaluate the inhibitory activities of the STLC analogs. Using a commercially available assay from Cytoskeleton, Inc, analogs were assayed for their ability to block the microtubule-activated ATPase activity of recombinant human EG5 motor domain. In parallel, HeLa cells were treated for four hours with a range of concentrations, and then fixed, stained for microtubules, and mitotic cells were scored for spindle bipolarity.

NCI60 tumor panel = NCI60 tumor panel growth inhibition, whole panel; assay type: cell-based
CCRF-CEM = assay: NCI60 growth inhibition, Leukemia CCRF-CEM; assay type: cell-based; details: Homo sapiens
Source text: (§1) MSTCO was screened against the NCI60 tumor panel. Cell lines shown above represent lines common to all three screens, and growth inhibition is expressed as the concentration of drug (μM) that achieved 50% growth inhibition.

HL-60(TB) = assay: cells; assay type: cell-based; details: Homo sapiens; Leukemia HL-60(TB)
K-562 = assay: NCI60 growth inhibition, Leukemia K-562; assay type: cell-based; details: Homo sapiens, K562
Source text: as §1

MOLT-4 = assay: NCI60 growth inhibition, Leukemia MOLT-4; assay type: cell-based; details: Homo sapiens
Source text: as §1

RPMI-8226 = assay: NCI60 growth inhibition, Leukemia RPMI-8226; assay type: cell-based; details: Homo sapiens
Source text: as §1

SR = assay: NCI60 growth inhibition, Leukemia SR; assay type: cell-based; details: Homo sapiens
Source text: as §1

A549/ATCC = assay: NCI60 growth inhibition, Non-Small Cell Lung A549/ATCC; assay type: cell-based; details: Homo sapiens
Source text: as §1

EKVX = assay: NCI60 growth inhibition, Non-Small Cell Lung EKVX; assay type: cell-based; details: Homo sapiens
Source text: as §1

HOP-62 = assay: NCI60 growth inhibition, Non-Small Cell Lung HOP-62; assay type: cell-based; details: Homo sapiens
Source text: as §1

NCI-H226 = assay: NCI60 growth inhibition, Non-Small Cell Lung NCI-H226; assay type: cell-based; details: Homo sapiens
Source text: as §1

NCI-H23 = assay: NCI60 growth inhibition, Non-Small Cell Lung NCI-H23; assay type: cell-based; details: Homo sapiens
Source text: as §1

NCI-H322M = assay: NCI60 growth inhibition, Non-Small Cell Lung NCI-H322M; assay type: cell-based; details: Homo sapiens
Source text: as §1

NCI-H522 = assay: NCI60 growth inhibition, Non-Small Cell Lung NCI-H522; assay type: cell-based; details: Homo sapiens
Source text: as §1

COLO 205 = assay: NCI60 growth inhibition, Colon COLO 205; assay type: cell-based; details: Homo sapiens
Source text: as §1

HCC-2998 = assay: NCI60 growth inhibition, Colon HCC-2998; assay type: cell-based; details: Homo sapiens
Source text: as §1

HCT-116 = assay: NCI60 growth inhibition, Colon HCT-116; assay type: cell-based; details: Homo sapiens
Source text: as §1

HCT-15 = assay: NCI60 growth inhibition, Colon HCT-15; assay type: cell-based; details: Homo sapiens
Source text: as §1

HT29 = assay: NCI60 growth inhibition, Colon HT29; assay type: cell-based; details: Homo sapiens, HT-29
Source text: as §1

KM12 = assay: NCI60 growth inhibition, Colon KM12; assay type: cell-based; details: Homo sapiens
Source text: as §1

SW-620 = assay: NCI60 growth inhibition, Colon SW-620; assay type: cell-based; details: Homo sapiens
Source text: as §1

SF-268 = assay: NCI60 growth inhibition, Central Nervous System SF-268; assay type: cell-based; details: Homo sapiens
Source text: as §1

SF-295 = assay: NCI60 growth inhibition, Central Nervous System SF-295; assay type: cell-based; details: Homo sapiens
Source text: as §1

SF-539 = assay: NCI60 growth inhibition, Central Nervous System SF-539; assay type: cell-based; details: Homo sapiens
Source text: as §1

SNB-19 = assay: NCI60 growth inhibition, Central Nervous System SNB-19; assay type: cell-based; details: Homo sapiens
Source text: as §1

SNB-75 = assay: NCI60 growth inhibition, Central Nervous System SNB-75; assay type: cell-based; details: Homo sapiens
Source text: as §1

U251 = assay: NCI60 growth inhibition, Central Nervous System U251; assay type: cell-based; details: Homo sapiens, U-251
Source text: as §1

LOX IMVI = assay: NCI60 growth inhibition, Melanoma LOX IMVI; assay type: cell-based; details: Homo sapiens
Source text: as §1

MALME-3M = assay: NCI60 growth inhibition, Melanoma MALME-3M; assay type: cell-based; details: Homo sapiens
Source text: as §1

M14 = assay: NCI60 growth inhibition, Melanoma M14; assay type: cell-based
Source text: as §1

SK-MEL-2 = assay: NCI60 growth inhibition, Melanoma SK-MEL-2; assay type: cell-based; details: Homo sapiens
Source text: as §1

SK-MEL-28 = assay: NCI60 growth inhibition, Melanoma SK-MEL-28; assay type: cell-based; details: Homo sapiens
Source text: as §1

SK-MEL-5 = assay: NCI60 growth inhibition, Melanoma SK-MEL-5; assay type: cell-based; details: Homo sapiens
Source text: as §1

UACC-257 = assay: NCI60 growth inhibition, Melanoma UACC-257; assay type: cell-based; details: Homo sapiens
Source text: as §1

UACC-62 = assay: NCI60 growth inhibition, Melanoma UACC-62; assay type: cell-based; details: Homo sapiens
Source text: as §1

IGROV1 = assay: NCI60 growth inhibition, Ovarian IGROV1; assay type: cell-based; details: Homo sapiens, IGROV-1
Source text: as §1

OVCAR-3 = assay: NCI60 growth inhibition, Ovarian OVCAR-3; assay type: cell-based; details: Homo sapiens
Source text: as §1

OVCAR-4 = assay: NCI60 growth inhibition, Ovarian OVCAR-4; assay type: cell-based; details: Homo sapiens
Source text: as §1

OVCAR-5 = assay: NCI60 growth inhibition, Ovarian OVCAR-5; assay type: cell-based; details: Homo sapiens
Source text: as §1

OVCAR-8 = assay: NCI60 growth inhibition, Ovarian OVCAR-8; assay type: cell-based; details: Homo sapiens
Source text: as §1

SK-OV-3 = assay: NCI60 growth inhibition, Ovarian SK-OV-3; assay type: cell-based; details: Homo sapiens
Source text: as §1

786-0 = assay: NCI60 growth inhibition, Renal 786-0; assay type: cell-based; details: Homo sapiens
Source text: as §1

ACHN = assay: NCI60 growth inhibition, Renal ACHN; assay type: cell-based; details: Homo sapiens
Source text: as §1

CAKI-1 = assay: NCI60 growth inhibition, Renal CAKI-1; assay type: cell-based; details: Homo sapiens
Source text: as §1

SN12C = assay: NCI60 growth inhibition, Renal SN12C; assay type: cell-based; details: Homo sapiens
Source text: as §1

TK-10 = assay: NCI60 growth inhibition, Renal TK-10; assay type: cell-based; details: Homo sapiens
Source text: as §1

UO-31 = assay: NCI60 growth inhibition, Renal UO-31; assay type: cell-based; details: Homo sapiens
Source text: as §1

How did the “inhibitory activity in the cell-based assay” value ([1]; HeLa bipolar spindle formation) turn out when `COc1ccc(C(SC[C@H](N)CO)(c2ccccc2)c2ccccc2)cc1` [Compound 1.0, 2-amino-3-[(4-methoxy-phenyl)-diphenyl-methylsulfanyl]-propan-1-ol] was run?
The value was “best performing analog”.

And the IC50 ([1]; Homo sapiens, HeLa, 4 h, read-out: Bipolar spindle formation IC50)?
The IC50 was 180 nM.

What about the “anti-proliferative activity, initial single-dose screen” value (NCI60 tumor panel; 60 cancer cell lines, single dose 10 μM) of the same compound?
Its value is “promising activity”.

What about the “average increase in activity over Monastrol” value (NCI60 tumor panel; GI50, average over cell lines) of the same compound?
Its value is 143 fold.

And the “average increase in activity over STLC” value (NCI60 tumor panel; GI50, average over cell lines)?
The value was 35 fold.

And the GI50 (NCI60 tumor panel; read-out: average GI50)?
The GI50 was 360 nM.

And the GI50 (NCI60 tumor panel; read-out: highest GI50 of the range over the panel)?
Its GI50 is 3000 nM.

And the GI50 (NCI60 tumor panel; read-out: lowest GI50 of the range over the panel)?
The GI50 was 20 nM.

And the GI50 (CCRF-CEM)?
The GI50 was 100 nM.

And the GI50 (HL-60(TB))?
Its GI50 is 190 nM.

And the GI50 (K-562)?
The GI50 was 60 nM.

What about the GI50 (MOLT-4) of the same compound?
The GI50 was 280 nM.

What about the GI50 (RPMI-8226) of the same compound?
Its GI50 is 30 nM.

And the GI50 (SR)?
Its GI50 is 10 nM.

And the GI50 (A549/ATCC)?
Its GI50 is 330 nM.

What about the GI50 (EKVX) of the same compound?
Its GI50 is 510 nM.

And the GI50 (HOP-62)?
Its GI50 is 510 nM.

And the GI50 (NCI-H226)?
The GI50 was 2750 nM.

What about the GI50 (NCI-H23) of the same compound?
Its GI50 is 260 nM.

What about the GI50 (NCI-H322M) of the same compound?
Its GI50 is 110 nM.

And the GI50 (NCI-H522)?
Its GI50 is 220 nM.

What about the GI50 (COLO 205) of the same compound?
Its GI50 is 80 nM.

And the GI50 (HCC-2998)?
The GI50 was 50 nM.

What about the GI50 (HCT-116) of the same compound?
The GI50 was 30 nM.

What about the GI50 (HCT-15) of the same compound?
The GI50 was 210 nM.

And the GI50 (HT29)?
The GI50 was 340 nM.

What about the GI50 (KM12) of the same compound?
The GI50 was 220 nM.

What about the GI50 (SW-620) of the same compound?
The GI50 was 70 nM.

What about the GI50 (SF-268) of the same compound?
The GI50 was 110 nM.

What about the GI50 (SF-295) of the same compound?
Its GI50 is 280 nM.

And the GI50 (SF-539)?
Its GI50 is 260 nM.

What about the GI50 (SNB-19) of the same compound?
Its GI50 is 250 nM.

And the GI50 (SNB-75)?
The GI50 was 260 nM.

And the GI50 (U251)?
The GI50 was 190 nM.

And the GI50 (LOX IMVI)?
The GI50 was 490 nM.

What about the GI50 (MALME-3M) of the same compound?
The GI50 was 360 nM.

What about the GI50 (M14; Homo sapiens, Melanoma M14) of the same compound?
Its GI50 is 20 nM.

What about the “increase in activity over STLC” value (M14; melanoma cell line M14, GI50) of the same compound?
Its value is 20 fold.

And the “increase in activity over monastrol” value (M14; melanoma cell line M14, GI50)?
The value was 1200 fold.

And the GI50 (SK-MEL-2)?
Its GI50 is 240 nM.

And the GI50 (SK-MEL-28)?
The GI50 was 620 nM.

What about the GI50 (SK-MEL-5) of the same compound?
The GI50 was 60 nM.

What about the GI50 (UACC-257) of the same compound?
Its GI50 is 540 nM.

What about the GI50 (UACC-62) of the same compound?
Its GI50 is 250 nM.

What about the GI50 (IGROV1) of the same compound?
Its GI50 is 260 nM.

What about the GI50 (OVCAR-3) of the same compound?
The GI50 was 200 nM.

What about the GI50 (OVCAR-4) of the same compound?
The GI50 was 1620 nM.

What about the GI50 (OVCAR-5) of the same compound?
The GI50 was 390 nM.

What about the GI50 (OVCAR-8) of the same compound?
Its GI50 is 420 nM.

And the GI50 (SK-OV-3)?
The GI50 was 80 nM.

And the GI50 (786-0)?
The GI50 was 440 nM.

And the GI50 (ACHN)?
The GI50 was 490 nM.

What about the GI50 (CAKI-1) of the same compound?
Its GI50 is 450 nM.

What about the GI50 (SN12C) of the same compound?
Its GI50 is 320 nM.

And the GI50 (TK-10)?
The GI50 was 460 nM.

And the GI50 (UO-31)?
Its GI50 is 1100 nM.
